Results: patent US4558054A, “Spasmolytic endo-8,8-dialkyl-8-azoniabicyclo (3.2.1) octane-6,7-exo-epoxy-3-alkyl-carboxylate salts” (priority 1983, dated 1985)
Like-named read-outs stand apart in the source and are kept apart here.

Experiments:
[1] = system: mouse pupil (basal pupillary diameter); assay: Mydriatic activity in the mouse; format: in vivo; details: for mydriatic activity lower than atropine methyl bromide: vs atropine methyl bromide
Procedure: 4. Mydriatic activity in the mouse
The dose able to increase the basal pupillary diameter by 150% (ED150)15 minutes, 30 minutes, 60 minutes and 120 minutes after intraperitoneal administration of the compounds into the mouse was calculated.
Mydriatic activity evaluated in the mouse 15 minutes, 30 minutes, 60
minutes after intraperitoneal administration

[2] = system: isolated rat ileum (antagonist barium chloride); assay: Isolated rat ileum, spasmolytic (direct myolytic) activity vs barium chloride, pA2; format: cell-based; set-up: key to pA2, spasmolytic effect: pA2 = −log molar antagonist conc. halving BaCl2-induced contraction; details: for direct myolytic activity relative to Buscopan: Buscopan activity = 1; for spasmolytic activity in words, rat ileum: compared with Buscopan; for pA2, spasmolytic effect: isolated rat ileum, barium chloride, 6 experiments, confidence limits P = 0.05; for Activity ratio: with respect to Buscopan (=1), antilogarithm of pA2 difference
Excerpt: 1. Isolated rat ileum (antagonist barium chloride)
The spasmolytic activity of the compounds reported in Table 1 were studied firstly in a comparison with Buscopan (scopolamine butyl bromide), using the isolated rat ileum, by the classical Magnus method [Magnus and coll., Pflugers Gas. Physiol., 102, 123 (1904)], of which the smooth muscle was subjected to direct stimulation by barium chloride. The evaluation of this activity was made by the method involving the pA2 determination [Schild H. G., Brit. J. Pharmacol., 2, 189, (1947)]. The pA2 value is the negative logarithm of the molar concentration of the antagonist able to reduce the contraction induced by the antagonist (barium chloride) by 50%.
Spasmolytic effect evaluated on the isolated rat ileum with barium
chloride as antagonist, and expressed as the pA2 value.

[3] = target: T1, isolated guinea pig ileum (antagonist acetyl choline) (Cavia porcellus, UniProt H0W1Z3); assay: Isolated guinea pig ileum, antimuscarinic activity vs acetyl choline, pA2; format: cell-based; details: for antimuscarinic spasmolytic activity in words, compared with Buscopan / spasmolytic activity relative to Buscopan: vs Buscopan; for antimuscarinic activity in words, compared with atropine: vs atropine
T1 construct: antimuscarinic activity using the isolated guinea pig ileum; from tissue; host or cells: isolated guinea pig ileum
Procedure: (§1) 2. Isolated guinea pig ileum (antagonist acetyl choline)
(§2) 2. Isolated guinea pig ileum
(§3) All the compounds were also tested for antimuscarinic activity using the isolated guinea pig ileum, with acetyl choline as antagonist.
(§4) The potency of action was evaluated by calculating the pA2 values, as in the case of the direct myolytic activity evaluated on the isolated rat ileum.
(§5) Antimuscarinic activity evaluated on the isolated guinea pig ileum
(§6) with acetyl choline as antagonist, expressed as pA2 value.

[4] = system: T2, isolated guinea pig ileum (antagonist acetyl choline) (Cavia porcellus); assay: as above; format: cell-based; details: with respect to Buscopan (=1)
T2 construct: antimuscarinic activity using the isolated guinea pig ileum; from tissue; host or cells: isolated guinea pig ileum
Procedure: as §1, §2, §3, §4, §5, §6

[5] = Overall pharmacological screening (spasmolytic activity and side effects); details: intestinal transit and mydriatic effect in the mouse
Procedure: The study was conducted using the following in vitro and in vivo tests, each time in comparison with Buscopan, atropine methyl bromide and syntropium bromide: […]

[6] = system: intestinal transit in the mouse; assay: Intestinal transit in the mouse (inhibition of progression of opaque meal); details: in vivo, ip
Procedure: (§7) 3. Intestinal transit in the mouse
(§8) 3. intestinal transit in the mouse
(§9) An evaluation was made on the capacity of the studied compounds to inhibit the progression of an opaque meal 15 minutes after their intraperitoneal administration into the mouse. This test is indicative of undesirable side effects.
(§10) The method followed was the classical method of Janssen and Jageneau [Janssen P. A., Jageneau A. H., J. Pharm. Pharmacol. 9, 381 (1957)], by which the doses which inhibit the progression of the opaque meal through the small intestine by 50% (ED50) relative to the controls were calculated.
(§11) Activity affecting intestinal transit in the mouse after intra-
(§12) peritonal administration 15 minutes before taking the opaque

[7] = as above; details: in vivo, ip
Procedure: as §7, §8, §9, §10, §11, §12

mouse = assay: Acute toxicity in the mouse; format: in vivo; details: compared with reference standards / Buscopan
Procedure: (§13) 5. Acute toxicity in the mouse
(§14) The acute toxicity of the compounds according to the invention was evaluated in comparison with that of Buscopan, atropine methyl bromide and syntropium bromide, after intraperitoneal administration in male mice (Swiss stock).
(§15) The LD50, the values of which together with the relative confidence limits (P=0.05) are given in Table 6, was calculated by the Litchfield and Wilcoxon method [Litchfield J. T., Wilcoxon F. A., J. Pharmac. Exp. Theor., 96, 99 (1949)].
(§16) Acute toxicity in the mouse after intraperitoneal administration

[8] = Acute toxicity in the mouse; format: in vivo; details: mouse, in vivo, ip; male mice (Swiss stock); Litchfield and Wilcoxon
Procedure: as §13, §14, §15, §16

[9] = mouse, i.p., 150% increase of basal pupillary diameter
[10] = isolated guinea pig ileum, acetyl choline, 6 experiments, confidence limits P = 0.05, read-out: pA2, antimuscarinic activity (converted)

T2 sequence (H0W1Z3 1-590): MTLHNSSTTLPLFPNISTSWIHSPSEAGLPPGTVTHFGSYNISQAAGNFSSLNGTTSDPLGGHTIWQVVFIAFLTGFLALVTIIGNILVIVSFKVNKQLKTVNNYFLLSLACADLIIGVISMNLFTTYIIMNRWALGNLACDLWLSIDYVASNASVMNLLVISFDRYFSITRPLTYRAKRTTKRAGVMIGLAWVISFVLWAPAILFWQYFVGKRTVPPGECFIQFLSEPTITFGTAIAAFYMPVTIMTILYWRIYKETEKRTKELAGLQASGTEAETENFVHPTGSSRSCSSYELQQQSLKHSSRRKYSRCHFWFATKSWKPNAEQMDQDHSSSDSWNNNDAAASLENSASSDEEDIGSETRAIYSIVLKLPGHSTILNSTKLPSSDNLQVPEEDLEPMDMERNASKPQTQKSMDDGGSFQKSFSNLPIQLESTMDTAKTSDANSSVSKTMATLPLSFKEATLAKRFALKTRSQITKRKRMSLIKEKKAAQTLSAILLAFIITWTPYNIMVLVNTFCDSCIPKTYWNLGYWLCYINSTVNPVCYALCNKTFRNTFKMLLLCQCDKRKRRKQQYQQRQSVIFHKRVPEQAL
T1 sequence (H0W1Z3 1-590): as above

| SMILES | ED150 after 15 min [1, 9] [mg/kg/i.p.] | ED150 after 30 min [1, 9] [mg/kg/i.p.] | spasmolytic activity in words, rat ileum [2] | pA2, spasmolytic effect [2] | Activity ratio [2] | Kb [3] [nM] | Activity ratio [4] | ED50 [7] [mg/kg] | acute toxicity in words (mouse) | LD50 [8] [mg/kg] | ED150 after 60 min [1, 9] [mg/kg/i.p.] | other results |
| --- | --- | --- | --- | --- | --- | --- | --- | --- | --- | --- | --- | --- |
| CCCC(CCC)C(=O)O[C@@H]1C[C@@H]2[C@H]3O[C@H]3[C@H](C1)[N@+]2(C)CC [No. 5, endo-8-methyl-8-syn-ethyl-8-azoniabicyclo[3.2.1]octane-6,7-exo-epoxy-3-(2-propyl)pentanoate bromide] | 2.17 | 6.16 | decidedly greater than those of Buscopan | 7.73 | 7.8 | 19.1 | 2.25 | 73.2 | lower toxicity | 74 | – | mydriatic activity lower than atropine methyl bromide [1]: > 100 times less; direct myolytic activity relative to Buscopan [2]: 7.8 times; antimuscarinic spasmolytic activity in words, compared with Buscopan [3]: decidedly greater than those of Buscopan; spasmolytic activity relative to Buscopan [3]: 2.45 times; antimuscarinic activity in words, compared with atropine [3]: approaches that of atropine itself; side effects in words [5]: lesser level of side effects; reduction of intestinal transit in words [6]: reduce intestinal transit to a decidedly lesser extent |
| CCCC[N+]1(C)[C@@H]2C[C@@H](OC(=O)[C@H](CO)c3ccccc3)C[C@H]1[C@@H]1O[C@@H]12 (stereo partly drawn) [Buscopan, scopolamine butyl bromide] | 3.24 | 3.29 | – | 6.84 | – | – | – | 51.7 | – | 65 | 3.66 | mydriatic activity over time, in words ([1]; mouse, i.p.): still possesses activity 120 minutes after its administration; ED150 after 120 min ([1]; mouse, i.p., 150% increase of basal pupillary diameter, 120 min): 5.32 mg/kg/i.p.; Kb [3, 10]: 46.8 nM |
| CCCC(CCC)C(=O)OC1CC2CCC(C1)[N+]2(C)C(C)C (stereo not drawn) [Syntropium Br, syntropium bromide, reference compound] | – | – | – | – | – | – | 2.57 | – | – | 65 | – | Kb [3, 10]: 18.2 nM; ED50 ([7]; 15 minutes before opaque meal, indicative of side effects, read-out: ED50, inhibition of progression of opaque meal by 50%): 29.8 mg/kg |
| CCCC(CCC)C(=O)O[C@@H]1C[C@@H]2[C@H]3O[C@H]3[C@H](C1)[N+]2(C)C [No. 2, endo-8,8-dimethyl-8-azoniabicyclo[3.2.1]octane-6,7-exo-epoxy-3-(2-propyl)pentanoate bromide] | 0.21 | 0.42 | decidedly greater than those of Buscopan | 8.06 | 16.6 | 11 | 4.27 | 79 | decidedly lower toxicity | 93.5 | 1.46 | mydriatic activity lower than atropine methyl bromide [1]: 10 times less; direct myolytic activity relative to Buscopan [2]: 16.6 times; antimuscarinic spasmolytic activity in words, compared with Buscopan [3]: decidedly greater than those of Buscopan; spasmolytic activity relative to Buscopan [3]: 4.27 times; antimuscarinic activity in words, compared with atropine [3]: approaches that of atropine itself; antimuscarinic activity in words, compared with syntropium bromide ([3]; vs syntropium bromide): much higher than; side effects in words [5]: lesser level of side effects; reduction of intestinal transit in words [6]: reduce intestinal transit to a decidedly lesser extent |
| CCCC(CCC)C(=O)O[C@@H]1C[C@@H]2[C@H]3O[C@H]3[C@H](C1)[N@+]2(C)C(C)C [No. 8, endo-8-methyl-8-syn-(1-methyl)ethyl-8-azoniabicyclo[3.2.1]octane-6,7-exo-epoxy-3-(2-propyl)pentanoate bromide] | – | – | good spasmolytic activity | 5.72 | 0.08 | 302 | 0.15 | ~69 | – | 78 | – | – |
| C[N+]1(C)[C@@H]2CC[C@H]1C[C@@H](OC(=O)C(CO)c1ccccc1)C2 (stereo partly drawn) [Atropine MeBr, atropine methyl bromide] | 0.030 | 0.030 | – | – | – | – | – | 52.1 | – | 75 | 0.052 | – |
| CCCC[N@+]1(C)[C@@H]2C[C@@H](OC(=O)C(CCC)CCC)C[C@H]1[C@@H]1O[C@@H]12 [No. 10, endo-8-methyl-8-syn-butyl-8-azoniabicyclo[3.2.1]octane-6,7-exo-epoxy-3-(2-propyl)pentanoate bromide] | – | – | – | – | – | – | – | ~85 | decidedly lower toxicity | 105 | – | – |
| CCCC(CCC)C(=O)O[C@@H]1C[C@@H]2[C@H]3O[C@H]3[C@H](C1)[N@@+]2(C)CC [No. 12, endo-8-methyl-8-anti-ethyl-8-azoniabicyclo[3.2.1]octane-6,7-exo-epoxy-3-(2-propyl)pentanoate bromide] | – | – | activity similar to that of Buscopan | 6.66 | 0.7 | 93.3 | 0.50 | 42.2 | – | 72 | – | activity lower than Buscopan ([2]; vs Buscopan): 1.5 times lower |
